Source: ChEMBL document CHEMBL1140663, “Effect of the minor ABA metabolite 7'-hydroxy-ABA on Arabidopsis ABA 8'-hydroxylase CYP707A3” (Bioorg Med Chem Lett, 2007)

What was measured:
[1] = target: T1, Abscisic acid 8'-hydroxylase 3 (Arabidopsis thaliana, UniProt Q9FH76); experiment: Inhibition of recombinant CYP707A3 at 5 uM
T1 sequence (Q9FH76 whole entry): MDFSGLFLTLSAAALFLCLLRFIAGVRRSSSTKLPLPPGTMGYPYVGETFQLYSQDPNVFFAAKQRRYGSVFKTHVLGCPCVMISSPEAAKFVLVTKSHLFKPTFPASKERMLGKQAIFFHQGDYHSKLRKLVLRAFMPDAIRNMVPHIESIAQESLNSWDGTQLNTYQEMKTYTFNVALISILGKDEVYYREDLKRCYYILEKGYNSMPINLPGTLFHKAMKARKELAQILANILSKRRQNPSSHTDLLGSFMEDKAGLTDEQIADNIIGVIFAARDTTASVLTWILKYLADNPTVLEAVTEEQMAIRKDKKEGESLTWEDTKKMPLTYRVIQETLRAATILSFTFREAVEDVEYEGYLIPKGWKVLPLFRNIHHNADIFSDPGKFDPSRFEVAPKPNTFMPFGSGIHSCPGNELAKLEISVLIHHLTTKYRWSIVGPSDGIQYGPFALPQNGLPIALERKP

[2] = target: T1, Abscisic acid 8'-hydroxylase 3; experiment: Inhibition of recombinant CYP707A3 at 50 uM

inhibition at 5 µM [1] | inhibition at 50 µM [2] | SMILES
0% | 0% | CC(=C/C(=O)O)/C=C/[C@@]1(O)C(CO)=CC(=O)CC1(C)C
0% | 24% | CC(=C/C(=O)O)/C=C/[C@H]1C(CO)=CC(=O)CC1(C)C
15% | 63% | CC(=C/C(=O)O)/C=C/[C@@]1(O)C(C=O)=CC(=O)CC1(C)C
